Test system: 817829-284-R-J1-PDC complex spheroids, viability
Assay: Anticancer human tumor 817829-284-R-J1-PDC patient-derived colon adenocarcinoma cell line growth inhibition [GQUAD]
Conditions: second compound 0.1 µM; first compound 1 µM; stronger effect = lower value
Source text: DNA G-quadruplex Stabilizer Agents in Combinations in Complex Spheroids
A high-throughput screen of multi-cell type tumor spheroids was designed to identify active combinations of DNA G-quadruplex stabilizer agents and targeted small molecules. Complex spheroids include a stromal component modeled by human endothelial cells (HUVEC) and fibroblasts modeled by human mesenchymal stem cells (MSCs). The concentration ranges selected for each drug and investigational agent were based upon clinically achievable concentrations if the clinical Cmax of the agent was known.
Compounds. The drugs and investigational agents: pidnarulex (CX-5461; NSC782164), APTO-253 (NSC789042), BRACO-19 (NSC847499), peposertib (NSC802822), ceralasertib (NSC780249), elimusertib (NSC800525), camonsertib (NSC841442), AZD-1390 (NSC803789), olaparib (NSC753686), talazoparib (NSC767125), ART-558 (NSC835418), sotorasib (NSC818433), MRTX-1133 (NSC836407), SN-38 (NSC673596), topotecan (NSC609699), etoposide (NSC141540), doxorubicin (NSC123127), gemcitabine (NSC613327), 5-fluorouracil (NSC19893), paclitaxel (NSC125973), vemurafenib (NSC761431), panobinostat (NSC761190), R-306465 (JNJ-16241199; NSC773264), adavosertib (NSC754352), TP-3654 (NSC805149), carboplatin (NSC241240), KSQ-4279 (NSC840948), and staurosporine (NSC755774) were obtained from the National Cancer Institute (NCI) Developmental Therapeutics Program Chemical Repository (34). The FDA-approved anticancer drug set is available from the NCI Developmental Therapeutics Program. […] The stock solutions were prepared in dimethyl sulfoxide (DMSO, Sigma-Aldrich, St. Louis, MO, cat. D2650) at 800-fold the tested concentration and stored at -70 degrees C prior to their use. All drugs and investigational agents were tested over a range starting from a high concentration at or near the clinical Cmax and decreasing in half-log increments. If the clinical Cmax for an agent had not been determined, the highest concentration tested was 10 microM.
2.3 Cell Culture. All cells were maintained in an incubator at 37 degrees C and 5% CO2 with 95% humidity. The PDC lines were cultured according to standard operating procedures established by the NCI PDMR. All PDCs were thawed and cultured in Matrigel-coated flasks prepared with a working solution of 1X Ham's F-12 nutrient mix, without supplementation (Invitrogen, cat. 11765054), 100 U/mL penicillin-streptomycin (Invitrogen, cat. 15140122), and 2.5% Matrigel (Corning Inc., cat. 354248) for the first three passages. The 857933-349-R-J2-PDC line was cultured in 6C/Colon 1B media, which includes advanced DMEM/F-12 (Thermo Fisher Scientific, cat. 12634028), 10 mM HEPES (Thermo Fisher Scientific, cat. 15630080), 1X GlutaMAX supplement (Thermo Fisher Scientific, cat. 35050061), 0.1 mg/mL primocin (InvivoGen, cat. ant-pm-2), 10% defined fetal bovine serum, heat inactivated (HyClone Laboratories Inc., cat. SH30070.03HI), 50% L-WRN conditioned media (ATCC, cat. CRL-3276), 1.25 mM N-Acetyl-L-cysteine (Sigma-Aldrich, cat. A9165), 10 mM nicotinamide (Sigma-Aldrich, cat. N0636), 1X B-27 supplement (Thermo Fisher Scientific, cat. 17504044), 1X N-2 supplement (Thermo Fisher Scientific, cat. 17502048), 10 microM Y-27632 dihydrochloride (Tocris Bioscience, cat. 1254), and 50 ng/mL human EGF recombinant protein (Thermo Fisher Scientific, cat. PHG0311). The 485176-168-R4-J1-PDC line was cultured in Panc media, which includes all 6C/Colon 1B media components plus 100 ng/mL human FGF-10 (Thermo Fisher Scientific, cat. 100-26), 500 nM SB-431542 (Selleckchem, cat. S1067), and gastrin (Tocris, cat. 3006).
[…]
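Note: spheroids exposed to agents for 7 days before readout; percent viability relative to DMSO vehicle control taken as 100%.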

SMILES	viability, T/C [%]
COc1ccc([C@@H](O)c2cc(-c3ncnc4cc(N5CCOCC5)ccc34)c(F)cc2Cl)nn1 + Cc1[nH]c2ccc(F)cc2c1-c1nc2c3cccnc3c3ncccc3c2[nH]1	99.7

Same assay, conditions: second compound 0.1 µM; first compound 3.16 µM; stronger effect = lower value

SMILES	viability, T/C [%]
CC(C)(O)C1CCC(Nc2ccc3ncc(-c4cccc(C(F)(F)F)c4)n3n2)CC1 (stereo unspecified) + CN(C)c1ccc(Nc2c3ccc(NC(=O)CCN4CCCC4)cc3nc3cc(NC(=O)CCN4CCCC4)ccc23)cc1	39.9
CC1COCCN1c1cc(-c2ccnn2C)c2ccnc(-c3ccn[nH]3)c2n1 (stereo unspecified) + Cc1[nH]c2ccc(F)cc2c1-c1nc2c3cccnc3c3ncccc3c2[nH]1	5.94
CC1COCCN1c1cc(C2(S(C)(=N)=O)CC2)nc(-c2ccnc3[nH]ccc23)n1 (stereo unspecified) + Cc1[nH]c2ccc(F)cc2c1-c1nc2c3cccnc3c3ncccc3c2[nH]1	10.7
COc1ccc([C@@H](O)c2cc(-c3ncnc4cc(N5CCOCC5)ccc34)c(F)cc2Cl)nn1 + Cc1[nH]c2ccc(F)cc2c1-c1nc2c3cccnc3c3ncccc3c2[nH]1	84.1

Same assay, conditions: second compound 0.1 µM; first compound 10 µM; stronger effect = lower value

SMILES	viability, T/C [%]
CC(C)(O)C1CCC(Nc2ccc3ncc(-c4cccc(C(F)(F)F)c4)n3n2)CC1 (stereo unspecified) + CN(C)c1ccc(Nc2c3ccc(NC(=O)CCN4CCCC4)cc3nc3cc(NC(=O)CCN4CCCC4)ccc23)cc1	59.2
CC1COCCN1c1cc(-c2ccnn2C)c2ccnc(-c3ccn[nH]3)c2n1 (stereo unspecified) + Cc1[nH]c2ccc(F)cc2c1-c1nc2c3cccnc3c3ncccc3c2[nH]1	4.22
CC1COCCN1c1cc(C2(S(C)(=N)=O)CC2)nc(-c2ccnc3[nH]ccc23)n1 (stereo unspecified) + Cc1[nH]c2ccc(F)cc2c1-c1nc2c3cccnc3c3ncccc3c2[nH]1	7.69
COc1ccc([C@@H](O)c2cc(-c3ncnc4cc(N5CCOCC5)ccc34)c(F)cc2Cl)nn1 + Cc1[nH]c2ccc(F)cc2c1-c1nc2c3cccnc3c3ncccc3c2[nH]1	51.4

Same assay, conditions: second compound 0.316 µM; first compound 0.0316 µM; stronger effect = lower value

SMILES	viability, T/C [%]
CC(C)(O)C1CCC(Nc2ccc3ncc(-c4cccc(C(F)(F)F)c4)n3n2)CC1 (stereo unspecified) + CN(C)c1ccc(Nc2c3ccc(NC(=O)CCN4CCCC4)cc3nc3cc(NC(=O)CCN4CCCC4)ccc23)cc1	97.5
CC1COCCN1c1cc(-c2ccnn2C)c2ccnc(-c3ccn[nH]3)c2n1 (stereo unspecified) + Cc1[nH]c2ccc(F)cc2c1-c1nc2c3cccnc3c3ncccc3c2[nH]1	48.6
CC1COCCN1c1cc(C2(S(C)(=N)=O)CC2)nc(-c2ccnc3[nH]ccc23)n1 (stereo unspecified) + Cc1[nH]c2ccc(F)cc2c1-c1nc2c3cccnc3c3ncccc3c2[nH]1	94.7
COc1ccc([C@@H](O)c2cc(-c3ncnc4cc(N5CCOCC5)ccc34)c(F)cc2Cl)nn1 + Cc1[nH]c2ccc(F)cc2c1-c1nc2c3cccnc3c3ncccc3c2[nH]1	82.2

Same assay, conditions: second compound 0.316 µM; first compound 0.1 µM; stronger effect = lower value

SMILES	viability, T/C [%]
CC(C)(O)C1CCC(Nc2ccc3ncc(-c4cccc(C(F)(F)F)c4)n3n2)CC1 (stereo unspecified) + CN(C)c1ccc(Nc2c3ccc(NC(=O)CCN4CCCC4)cc3nc3cc(NC(=O)CCN4CCCC4)ccc23)cc1	97
CC1COCCN1c1cc(-c2ccnn2C)c2ccnc(-c3ccn[nH]3)c2n1 (stereo unspecified) + Cc1[nH]c2ccc(F)cc2c1-c1nc2c3cccnc3c3ncccc3c2[nH]1	19.7
CC1COCCN1c1cc(C2(S(C)(=N)=O)CC2)nc(-c2ccnc3[nH]ccc23)n1 (stereo unspecified) + Cc1[nH]c2ccc(F)cc2c1-c1nc2c3cccnc3c3ncccc3c2[nH]1	106
COc1ccc([C@@H](O)c2cc(-c3ncnc4cc(N5CCOCC5)ccc34)c(F)cc2Cl)nn1 + Cc1[nH]c2ccc(F)cc2c1-c1nc2c3cccnc3c3ncccc3c2[nH]1	111

Same assay, conditions: second compound 0.316 µM; first compound 0.316 µM; stronger effect = lower value

SMILES	viability, T/C [%]
CC(C)(O)C1CCC(Nc2ccc3ncc(-c4cccc(C(F)(F)F)c4)n3n2)CC1 (stereo unspecified) + CN(C)c1ccc(Nc2c3ccc(NC(=O)CCN4CCCC4)cc3nc3cc(NC(=O)CCN4CCCC4)ccc23)cc1	86.8
CC1COCCN1c1cc(-c2ccnn2C)c2ccnc(-c3ccn[nH]3)c2n1 (stereo unspecified) + Cc1[nH]c2ccc(F)cc2c1-c1nc2c3cccnc3c3ncccc3c2[nH]1	9.27
CC1COCCN1c1cc(C2(S(C)(=N)=O)CC2)nc(-c2ccnc3[nH]ccc23)n1 (stereo unspecified) + Cc1[nH]c2ccc(F)cc2c1-c1nc2c3cccnc3c3ncccc3c2[nH]1	95.3
COc1ccc([C@@H](O)c2cc(-c3ncnc4cc(N5CCOCC5)ccc34)c(F)cc2Cl)nn1 + Cc1[nH]c2ccc(F)cc2c1-c1nc2c3cccnc3c3ncccc3c2[nH]1	115

Source: PubChem BioAssay AID2060503 (Molecular Pharmacology Branch, DTP, NCI, 2025)
